In patent US20220372585A1, “Sensors for Aromatic Compounds and Methods of Making and Using Same” (Washington University, priority 2021, published 2022):
“Also recorded” adds a separate entry of the source. Read-outs that look alike come from different tables or passages of the source.

How the values were obtained:
G494S TynA and A81S FeaR = type: cell-based, E. coli MG1655; conditions: G494S TynA and A81S FeaR; 5 h and 24 h; FIG. 23A-B
Description: (§1) Flow cytometry was performed as previously described. […] Cytometry data was gated by forward and side scatter.

[1] = tested on: wild-type TynA with A81T FeaR; type: cell-based, E. coli MG1655; conditions: wild-type TynA; 1 mM, 24 h; FIG. 21
Description: as §1

[2] = tested on: G494S TynA with A81T FeaR; type: cell-based, E. coli MG1655; conditions: G494S*
Description: as §1

[3] = tested on: wild-type TynA with M83Q FeaR; type: cell-based, E. coli MG1655; conditions: M83Q FeaR; 24 h; FIG. 28A
Description: as §1

[4] = tested on: wild-type TynA with L108T FeaR; type: cell-based, E. coli MG1655; conditions: L108T FeaR; 24 h; FIG. 28B
Description: as §1

[5] = tested on: wild-type TynA with W110C FeaR; type: cell-based, E. coli MG1655; conditions: W110C FeaR; 24 h; FIG. 28D
Description: as §1

[6] = tested on: wild-type TynA with W110S FeaR; type: cell-based, E. coli MG1655; conditions: W110S FeaR; 24 h; FIG. 28C
Description: as §1

[7] = tested on: G415H TynA with wild-type FeaR; type: cell-based, E. coli MG1655; conditions: G415H
Description: as §1

[8] = tested on: G494S TynA with wild-type FeaR; type: cell-based, E. coli MG1655; conditions: G494S TynA, wild-type FeaR; 5 h and 24 h; FIG. 18A-B
Description: as §1

[9] = tested on: TynA-KP with FeaR-KA I109N; assay: GFP fluorescence from PtynA-MG with TynA-KP and FeaR-KA I109N; type: cell-based, Klebsiella aerogenes
Text: FIG. 32. […] Sensor system with PtynA-MG, TynA-KP and FeaR-KA was chosen as the wild type (WT) for further directed evolution. TynA-KP was employed to reduce the possible interference from DA during evolution processes. Values and error bars are the average and standard deviation of biological triplicate, respectively.
FIG. 33A-FIG. 33B. […] The expression of PtynA-MG was regulated by the TynA-KP with FeaR-KA I109N mutant. Points represent experimental data while lines represent the fitted curves. […] Values and error bars are the average and standard deviation of biological triplicate, respectively.

FeaR (TynA inactivated) = conditions: 0.5 mM, FIG. 3C
Description: (§2) To develop sensors for aromatic amines, the TynA-FeaR system was first characterized in EcN. A sensor plasmid was constructed, which consisted of constitutively expressed TynA and FeaR from E. coli MG1655, and a reporter plasmid, which consisted of GFP under the control of PtynA (see e.g., FIG. 3B). […] Next, the sensitivity and selectivity to different ligands was characterized.
For fluorescence-based quantification, single colonies were transferred to 5 mL LB medium (VWR, Radnor, Pa., USA) in 14 mL round bottom tubes and incubated overnight at 250 rpm and 37° C. […]
Flow cytometry was performed as previously described. […] The fluorescence of the samples was measured using a Millipore Guava EasyCyte High Throughput flow cytometer with a 488 nm excitation laser and 512/18 nm emission filter. […] FlowJo (TreeStar Inc.) was used to obtain the arithmetic mean of the fluorescence distribution. The averages of the arithmetic means were calculated from three biological replicates. The average fluorescence of the non-fluorescent wild-type cell was subtracted from each sample to obtain the final fluorescence (au) values (Equation 2). To obtain the relative fluorescence in FIG. 6A-FIG. 6C, fluorescence values for each variant were normalized to the fluorescence of the wild-type sensor using Equation 3.

TynA-FeaR system = assay: microbe, parasite or virus in culture; conditions: for EC50: read-out: KA (half maximal constant); for Fmax / Fmin / n (Hill coefficient): wild-type TynA and FeaR, pCX008, pHJY022
Description: as §2
For fluorescence-based quantification, single colonies were transferred to 5 mL LB medium (VWR, Radnor, Pa., USA) in 14 mL round bottom tubes and incubated overnight at 250 rpm and 37° C. Unless otherwise specified, experimental cultures were prepared by diluting overnight cultures 100× into 0.6 mL M9 minimal medium supplemented with 1 mM MgSO4, […]), and 2% w/v glycerol as well as the respective ligands (DA, PEA, Tyra, and Trypta) in 2 mL 96-deep well plates. Cultures were grown for 24 h at 37° C. and 250 rpm. After 5 h and 24 h of incubation, samples were obtained from the cultures for flow cytometry analysis.
Flow cytometry was performed as previously described. Culture samples were collected and diluted to a final OD600 of ˜0.005-0.01 in […] filtered phosphate-buffered saline supplemented with 2 mg/ml kanamycin in 96-well assay microplates (U-bottom, REF-353910 from BD Biosciences, San Jose, Calif., USA). The fluorescence of the samples was measured using a Millipore Guava EasyCyte High Throughput flow cytometer with a 488 nm excitation laser and 512/18 nm emission filter. Cytometry data was gated by forward and side scatter. FlowJo (TreeStar Inc.) was used to obtain the arithmetic mean of the fluorescence distribution. The averages of the arithmetic means were calculated from three biological replicates. The average fluorescence of the non-fluorescent wild-type cell was subtracted from each sample to obtain the final fluorescence (au) values (Equation 2). To obtain the relative fluorescence in FIG. 6A-FIG. 6C, fluorescence values for each variant were normalized to the fluorescence of the wild-type sensor using Equation 3.
The Hill equation (Equations 4 and 5) was used to fit lines to the fluorescence data. The model was fit to the experimentally collected data by minimizing the root mean square error (RMSE; Equation 6).

[10] = tested on: wild-type TynA and A81L FeaR; assay: microbe, parasite or virus in culture; type: cell-based, E. coli MG1655; conditions: A81L FeaR
Description: as §1

[11] = tested on: wild-type TynA with A81P FeaR; assay: microbe, parasite or virus in culture; type: cell-based, E. coli MG1655; conditions: A81P FeaR; 5 h and 24 h; FIG. 25A-B
Description: as §1

## NCCc1ccc(O)c(O)c1 [Dopamine, dopamine]
G494S TynA and A81S FeaR
  response: lack of response
[1]
  effect of the A81T FeaR mutation on the response of the sensor: significantly reduced
[2]; 5 h, FIG. 17A
  response: lack of response
[2]; 24 h, FIG. 4C
  response: lack of response
[3]
  response: lack of response
[4]
  response: lack of response
[5]
  response: lack of response
[6]
  response: lack of response
[7]; 5 h, FIG. 17B
  response: lack of response
[7]; 24 h, FIG. 4D, listed as DA
  response: lack of response; also recorded: minimal response
[8]
  response: lack of response
[9]; FeaR-KA I109N, 5 h and 24 h, FIG. 33A-B
  response: lack of response
[9]; I109N variant, 0.5 mM, 24 h, FIG. 32
  induction of fluorescence: not
FeaR (TynA inactivated)
  induction of PtynA: eliminated
TynA-FeaR system; 0.5 mM, in the presence of TynA, FIG. 3C
  fold increase in GFP expression: 410 fold
TynA-FeaR system; Escherichia coli, 5 h
  EC50: 28 µM
TynA-FeaR system; Escherichia coli, 24 h
  EC50: 68 µM
TynA-FeaR system; Escherichia coli, read-out: fold induction of the reporter
  fold induction at 1250 µM: ~900
TynA-FeaR system; FIG. 3D, 24 h induction
  Fmax: 881
  Fmin: 0.1
  n (Hill coefficient): 3
TynA-FeaR system; FIG. 14, 5 h induction
  Fmax: 258
  Fmin: 4.4
  n (Hill coefficient): 1.5
[10]; 5 h, FIG. 24
  response: lack of response
[10]; 24 h, FIG. 5C
  response: lack of response
[11]
  response: lack of response
